From article PMC11893401, “Pharmacokinetics and pharmacodynamics of insulin lispro 25 versus the original preparation (Humalog®25) in Chinese healthy male volunteers” (Frontiers in Pharmacology, 2025)

Settings: in vivo
Description: Tolerability and safety were assessed by closely monitoring blood glucose levels and conducting other tests. All adverse events and severe adverse events (SAEs) were evaluated.
The safety of both formulations was evaluated through the assessment of laboratory examinations, 12-lead electrocardiogram, and vital signs.

Infusion site swelling | Substance
1(2.0) Number of Subjects(%) | mixed protamine zinc recombinant human insulin lispro injection [listing 1 of 2 here]
0 Number of Subjects(%) | mixed protamine zinc recombinant human insulin lispro injection [listing 2 of 2 here]
